Laboratory results reported in ChEMBL document CHEMBL4819120, “Identification of non-covalent 3C-like protease inhibitors against severe acute respiratory syndrome coronavirus-2 via virtual screening of a Korean compound library” (Bioorg Med Chem Lett, 2021).

Assays:
[1] = Inhibition of SARS-CoV-2 3CL protease using DABCYL-KTSAVLQ-SGFRKME-EDANS fluorogenic peptide as substrate by fluorescence assay; design: species or system Severe acute respiratory syndrome coronavirus 2
Vero C1008 = assay: Cytotoxicity against African green monkey Vero E6 cells; assay type: cell-based; settings: chlorocebus sabaeus
SARS-CoV-2 = assay: microbe, parasite or virus in culture; settings: Severe acute respiratory syndrome coronavirus 2, Vero C1008
Description: Antiviral activity against SARS-CoV-2 infected in monkey Vero E6 cells

Cc1cc(C)cc(Nc2nc(C)cc3nn(CC(=O)Nc4cc(F)ccc4F)c(=O)n23)c1
IC50 [1]: 8 µM | CC50 (Vero C1008): 469 µM | EC50 (SARS-CoV-2): 141 µM

Cc1ccc(Cl)cc1NC(=O)Cn1nc2c(Oc3ccc(C(C)C)cc3)nccn2c1=O
IC50 [1]: 8.9 µM

Cc1ccc(Cn2c(=O)c3ccccc3n3c(=O)n(CC(=O)Nc4ccc(F)cc4F)nc23)cc1
IC50 [1]: 9.5 µM

Cc1cc(C)cc(Nc2nc(C)cc3nn(CC(=O)Nc4ccccc4F)c(=O)n23)c1
IC50 [1]: 10.9 µM

O=C(Cn1c2ccccc2n2c(=O)cc(-c3ccc(Cl)cc3)nc12)Nc1ccc(F)cc1F
IC50 [1]: 5.7 µM | CC50 (Vero C1008): 454 µM | EC50 (SARS-CoV-2): 39.9 µM

Cc1cc2nn(CC(=O)Nc3ccccc3F)c(=O)n2c(Nc2ccccc2C)n1
IC50 [1]: 8.7 µM

CCc1ccc(NC(=O)Cn2nc3n(Cc4ccc(F)cc4)c(=O)c4ccccc4n3c2=O)cc1
IC50 [1]: 12.1 µM
